{"source": "ChEMBL document CHEMBL1141918", "about": "(Bioorg Med Chem Lett, 2005)", "key": {"Carbonic anhydrase 9": {"target": "Carbonic anhydrase 9 (Homo sapiens, UniProt Q16790)"}, "Carbonic anhydrase 1": {"target": "Carbonic anhydrase 1 (Homo sapiens, UniProt P00915)", "sequence (P00915 whole entry)": "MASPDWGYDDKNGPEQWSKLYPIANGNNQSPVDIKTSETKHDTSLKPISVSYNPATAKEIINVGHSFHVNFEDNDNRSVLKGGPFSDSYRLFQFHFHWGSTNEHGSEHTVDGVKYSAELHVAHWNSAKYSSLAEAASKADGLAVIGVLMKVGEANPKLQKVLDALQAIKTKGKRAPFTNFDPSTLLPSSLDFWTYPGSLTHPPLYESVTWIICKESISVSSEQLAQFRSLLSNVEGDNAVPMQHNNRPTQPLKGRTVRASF"}, "Carbonic anhydrase 4": {"target": "Carbonic anhydrase 4 (Homo sapiens, UniProt P22748)", "sequence (P22748 whole entry)": "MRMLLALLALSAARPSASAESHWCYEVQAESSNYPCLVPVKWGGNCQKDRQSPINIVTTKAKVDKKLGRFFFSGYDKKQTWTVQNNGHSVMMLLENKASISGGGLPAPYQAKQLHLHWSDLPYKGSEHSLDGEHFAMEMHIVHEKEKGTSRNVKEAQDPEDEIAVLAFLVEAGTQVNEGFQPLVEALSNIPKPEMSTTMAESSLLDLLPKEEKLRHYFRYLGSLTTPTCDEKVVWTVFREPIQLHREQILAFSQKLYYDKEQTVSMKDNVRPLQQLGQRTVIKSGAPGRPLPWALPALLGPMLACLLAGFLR"}, "[1]": {"target": "Carbonic anhydrase 5A, mitochondrial (Homo sapiens, UniProt P35218)", "sequence (P35218 whole entry)": "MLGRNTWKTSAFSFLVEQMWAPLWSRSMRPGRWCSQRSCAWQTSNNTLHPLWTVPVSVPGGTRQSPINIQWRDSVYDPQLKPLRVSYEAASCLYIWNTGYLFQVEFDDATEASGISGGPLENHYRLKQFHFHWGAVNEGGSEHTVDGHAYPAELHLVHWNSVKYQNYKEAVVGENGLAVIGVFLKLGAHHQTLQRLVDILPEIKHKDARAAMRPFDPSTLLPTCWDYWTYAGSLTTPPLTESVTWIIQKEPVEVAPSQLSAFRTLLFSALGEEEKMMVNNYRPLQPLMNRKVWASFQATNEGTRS"}, "Carbonic anhydrase 2": {"target": "Carbonic anhydrase 2 (Homo sapiens, UniProt P00918)"}}}
{"smiles": "F[P-](F)(F)(F)(F)F.[Na+]", "values": [{"measurement": "Ki", "setting": "Carbonic anhydrase 9", "result": 8.1, "unit": "mM"}, {"measurement": "Ki", "setting": "Carbonic anhydrase 1", "result": 11, "unit": "mM"}, {"measurement": "Ki", "setting": "Carbonic anhydrase 4", "result": 19.1, "unit": "mM"}, {"measurement": "Ki", "setting": "[1]", "result": "> 300", "unit": "mM"}, {"measurement": "Ki", "setting": "Carbonic anhydrase 2", "result": 17.5, "unit": "mM"}]}
